Key:
fat absorption [1] = experiment: Fat absorption (C-14 triolein) in mice on fat diet, single and repeated administration of LOC; format: in vivo, Albino mice; conditions: LOC 50 mg/kg body wt.
Excerpt: Determination of the activity of a lipase inhibitor using the lipstatin derivative LOC defined above, by way of example, on the fat s absorption from the feed in the case of single and repeated administration to mice was undertaken.
3 Albino mice weighing 25 g were used per dose in the test.
The mice received over several days a so-called fat diet in which the fat content was adjusted such that the mice received 23.4 g of fat per kg body wt. per day. The mice were fed with this feed for 8 days. On days 3 to 6 of the test C-14, labelled triolein and LOC in a dose of 50 mg/kg body weight were admixed with this feed. The feces of the mice was collected at intervals of 24 hours from days 4 to 8 of the test and evaluated according to the guidelines given in Example 1.
The control animals each received the test diet without the LOC active substance.
The absorption of the orally administered fat was measured as in Examples 1, and 2.

fat absorption [2] = experiment: Fat absorption from test meal in dogs (C-14 triolein recovery in feces), THL with or without cellulose; format: in vivo; conditions: for Triolein absorption in % of the applied dose: 26 g fat
Excerpt: Female dogs aged 7 to 15 years and having a body weight between 13 and 22 kg are divided into 2 groups each of 6 animals. The animals are fed with a standard dog food. The animals have free access to drinking water. The animals are given a test meal on the day of the test. This test meal contains as feed components 7.5% protein, 19% is carbohydrate, 6% fat, 1.6% minerals, 45% water and 20% ballast materials. The fat of the feed consists of 58% olive oil treated with C-14 triolein. The remaining fat is composed predominantly of saturated fatty acids. The absorption of the fat administered orally with the test diet was measured on the basis of the recovered radioactivity in the feces of the dogs. The difference between the orally-administered amount of C-14 labelled triolein and the radioactivity found in the feces within three days after intake of the test meal is considered to be absorbed fat. The absorbed amount is given as a percentage of the administered amount. The lower the absorption is, that is, the lower the percentage is, then the greater is the activity of the lipase inhibitor.

[3] = Blood plasma total glycerol in dogs after a test meal with THL and cellulose; format: in vivo; conditions: 50 mg THL + 80 g cellulose
Excerpt: Female dogs aged 7 to 15 years and having a body weight between 13 and 22 kg are divided into 2 groups each of 6 animals. The animals are fed with a standard dog food. The animals have free access to drinking water. The animals are given a test meal on the day of the test. This test meal contains as feed components 7.5% protein, 19% is carbohydrate, 6% fat, 1.6% minerals, 45% water and 20% ballast materials. The fat of the feed consists of 58% olive oil treated with C-14 triolein. The remaining fat is composed predominantly of saturated fatty acids. The blood plasma concentrations with respect to total glycerol of dogs which received test diet of 50 mg THL +80 g cellulose have been compared in Table 2 with those of a control without THL, but with cellulose.

[4] = Consistency of feces of the dogs; format: in vivo
fat absorption [5] = experiment: Mouse test: fat absorption (C-14 triolein), pure LST versus LST in a fermentation cake; format: in vivo; conditions: oral, 3 mice
Method: Microbiologically-produced lipstatin (LST) is used as the lipase inhibitor in both parts of the test. LST is equivalent as a chemically pure substance with LST as a component of a fermentation cake produced according to Example 4 of EP 129 748. The content of LST in the cake was determined at 4 g of LST per kg of fresh fermentation cake using conventional analytical methods.
a) Mouse test Comparison of chemically pure LST with LST as a component of a fermentation cake.
Pure LST or the dried fermentation cake was suspended in 5% gum arabic/5% lactose preparation, conventional in pharmacological tests, and administered orally to animals, which had been pre-fasted for 24 hours, in an amount of 10 ml/kg per mouse immediately after a liquid test meal. The test meal contained 2.5% starch, 24% glucose, 12% lactose and 7.6% olive oil labelled with C-14 triolein. Thereafter, the mice received a conventional standard feed.
The calculation of the absorbed fat in the feed was carried out as described in Example 1.
The results of the test are reported in Table 3 in which the LST dose is calculated per mg/kg body weight. The values are average values calculated from measurements on, in each case, 3 mice per test.

fat absorption [6] = experiment: Dog test: fat absorption (C-14 triolein), LST in the fermentation cake alone or with cellulose; format: in vivo, dogs; conditions: even when present in a fermentation cake; confirms mouse test
Excerpt: Female dogs aged 7 to 15 years and having a body weight between 13 and 22 kg are divided into 2 groups each of 6 animals. The animals are fed with a standard dog food. The animals have free access to drinking water.
The animals are given a test meal on the day of the test. This test meal contains as feed components 7.5% protein, 19% is carbohydrate, 6% fat, 1.6% minerals, 45% water and 20% ballast materials. The fat of the feed consists of 58% olive oil treated with C-14 triolein. The remaining fat is composed predominantly of saturated fatty acids.
The absorption of the fat administered orally with the test diet was measured on the basis of the recovered radioactivity in the feces of the dogs. The difference between the orally-administered amount of C-14 labelled triolein and the radioactivity found in the feces within three days after intake of the test meal is considered to be absorbed fat. The absorbed amount is given as a percentage of the administered amount. The lower the absorption is, that is, the lower the percentage is, then the greater is the activity of the lipase inhibitor.
Microbiologically-produced lipstatin (LST) is used as the lipase inhibitor in both parts of the test. […] The content of LST in the cake was determined at 4 g of LST per kg of fresh fermentation cake using conventional analytical methods. […]

With CCCCCCCCCCCCCCCCC[C@@H](C[C@@H]1OC(=O)[C@H]1CC)OC(=O)[C@H](CC(C)C)NC=O [LOC, N-formyl-L-leucine (S)-1-[[(2S,3S)-3-ethyl-4-oxo-2-oxetanyl]methyl]octadecyl ester] the “Triolein absorption in % of the amount given orally (±SDM)” value (fat absorption [1]; 1st day) was 26 ± 4% and the “Triolein absorption in % of the amount given orally (±SDM)” value (fat absorption [1]; 4th day) was 26 ± 3%.

For CCCCCCCCCCC[C@@H](C[C@@H]1OC(=O)[C@H]1CCCCCC)OC(=O)[C@H](CC(C)C)NC=O [THL, tetrahydrolipstatin], the attenuated fat absorption (fat absorption [2]; 50 mg THL + 80 g cellulose) was 28%, the “Triolein absorption in % of the applied dose” value (fat absorption [2]; THL 20 mg/test meal (1.5 mg/kg body wt.) + 80 g cellulose, 420 g test meal) was 48% and the “Triolein absorption in % of the applied dose” value (fat absorption [2]; THL 20 mg/test meal (1.5 mg/kg body wt.), no cellulose, 340 g test meal) was 70%. For the same compound, the “Triolein absorption in % of the applied dose” value (fat absorption [2]; THL 50 mg/test meal (4 mg/kg body wt.) + 80 g cellulose, 420 g test meal) was 28%, the “Triolein absorption in % of the applied dose” value (fat absorption [2]; THL 50 mg/test meal (4 mg/kg body wt.), no cellulose, 340 g test meal) was 63% and the “activity of the lipase inhibitor when cellulose is added” value (fat absorption [2]; THL + cellulose versus THL alone) was “considerably increased”. The “inhibition of the absorption of the administered radioactively labelled fat in the feed” value (fat absorption [2]; THL after addition of cellulose (about)) was 52-70%, the “reduction of the absorption of fat contained in the feed” value (fat absorption [2]; THL as sole additive to the test meal, depending on the dose (20 or 50 mg/meal)) was 30-37% and the Total plasma glycerol ([3]; 3 hrs. after administration) was 0.5 ± 0.02 mmol/l ± SEM. The Total plasma glycerol ([3]; 7 hrs. after administration) was 0.9 ± 0.13 mmol/l ± SEM, the Total plasma glycerol ([3]; before administration (starting value)) was 0.7 ± 0.07 mmol/l ± SEM and the plasma glycerol increase ([3]; 3 hours after test meal) was “no increase”. The “increase in the absorption” value ([3]; 7 hours postprandial) was “slight increase”, the “consistency of the feces” value ([4]; THL in combination with cellulose) was “solid and formed” and the “consistency of the feces” value ([4]; THL without cellulose) was “rather pulp-like”.

With CCCCCCCCCCC[C@@H](C[C@@H]1OC(=O)[C@H]1CCCCCC)OC(=O)[C@H](CC(C)C)NC=O [pure LST, lipstatin] the “Triolein absorption in % per dose administered” value (fat absorption [5]; LST dose 5.0 mg/kg) was 69%, the “Triolein absorption in % per dose administered” value (fat absorption [5]; LST dose 15 mg/kg) was 52% and the “Triolein absorption in % per dose administered” value (fat absorption [5]; LST dose 50.0 mg/kg) was 41%. For the same compound, the lipase inhibitor activity (fat absorption [6]) was “very active lipase inhibitor”.
